According to patent US11649208B2, “Compounds and methods for treating alcohol disorder” (SOPHROSYNE PHARMACEUTICALS LIMITED, priority 2021, dated 2023):
In brackets after ≈: the same amount, converted by molar mass. Read-outs that look alike come from different tables or passages of the source. Blank lines part the entries; values can stand above or below the compound they belong to.

Tests used:
liver ALDH2 [1] = target: T1, liver ALDH2 (Rattus norvegicus, UniProt P11884); experiment: 10-day rat Pharmacology study, liver ALDH2 activity following ethanol challenge; type: in vivo
T1 construct: from tissue; host or cells: liver (left lateral lobe) lysate of Sprague Dawley (CD-IGS) rats
T1 sequence (P11884 20-519): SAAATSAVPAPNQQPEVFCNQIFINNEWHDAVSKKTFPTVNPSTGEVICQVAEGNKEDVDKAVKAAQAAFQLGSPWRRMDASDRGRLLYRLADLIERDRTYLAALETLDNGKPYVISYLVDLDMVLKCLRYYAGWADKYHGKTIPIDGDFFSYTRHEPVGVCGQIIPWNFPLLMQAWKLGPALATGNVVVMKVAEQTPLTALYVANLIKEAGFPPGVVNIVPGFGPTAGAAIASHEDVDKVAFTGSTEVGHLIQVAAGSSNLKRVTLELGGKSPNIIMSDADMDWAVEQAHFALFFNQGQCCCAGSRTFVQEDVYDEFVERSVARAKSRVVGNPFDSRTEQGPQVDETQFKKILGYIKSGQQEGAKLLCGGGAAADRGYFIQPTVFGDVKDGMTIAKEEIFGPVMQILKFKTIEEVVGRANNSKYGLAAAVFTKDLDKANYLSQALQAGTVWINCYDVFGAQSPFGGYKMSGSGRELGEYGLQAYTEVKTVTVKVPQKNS
Procedure: (§1) Animals were respectively administered vehicle and Example 1-2 at dosages of 2, 6.5 or 12 mg/kg via tail vein injection, once daily for 1 day (Groups 1-4), once daily for 3 days (Groups 5-8), or once daily for 5 days (Groups 9-12). For Group 13, animals were administered 20 mg/kg (on Day 1) or 12 mg/kg (on Days 2-5) dose via tail vein injection, once daily for 5 days. In some studies, the animals were administered a compound described herein for 10 days. In some studies, the animals were administered a compound described herein for 12 days. In some studies, the study was carried out with administered the compounds described herein including Example 1-2 racemate, Example 1-2A, Example 1-21B, Example 1-11 racemate, Example 1-11A, and/or Example 1-11B at a dosage of about 0.5, 1, 2, 4, and 8 mg.
Ethanol (200PRF or 100% pure, non-denatured and no additives) was obtained from Fisher Scientific. The ethanol dosing solution was prepared fresh for each use. One (1) mL of ethanol was added to four (4) mL of saline (0.9% NaCl) in a glass vial and mixed by vortexing to create a uniform solution prior to administration. Animals were administered 20% ethanol at 1 g/kg (IP) 8 hours following the last dose of test article. Thirty (30) minutes following ethanol challenge, animals were euthanized with CO2. […]

liver ALDH2 [2] = target: T1, liver ALDH2; experiment: In vivo ALDH2 enzymatic activity assay, ethanol challenge (Example 2); parameters: species or system rats (Sprague Dawley)
Procedure: (§2) Sixty (60) male and sixty (60) female Sprague Dawley (CD-IGS) were obtained from Charles River Laboratories. All animals were housed under controlled conditions of temperature (72±8° F.), relative humidity (30-70%) and a 12-hour light-dark cycle (light from 6:00 AM to 6:00 PM). All animals were allowed free access to standard rodent chow (PicoLab Rodent Diet 20) and water (reverse osmosis, 0.2 μM filtered). Animals had at least a 3-day acclimation period prior to study.
Example 1-2 was synthesized by PharmAgra Labs, Lot #489PAL97; and stored at 4° C. and protected from light upon receipt. Example 1-2 dosing solutions were prepared by dissolving in PBS (pH 7.0) and thoroughly mixing via vortexing and sonication.
Example 1-15 was synthesized by PharmAgra Labs, Lot #505PAL17; and stored at 4° C. and protected from light upon receipt. Example 1-15 dosing solution was prepared by dissolving in PBS (pH 7.0) and thoroughly mixing via vortexing and sonication. The dosing formulation at concentration of 20 mg/mL was a clear solution.
Body weights of the animals in Groups 1-4 were obtained on Day 1. Body weights of the animals in Groups 5-8 were obtained on Days 1-3 respectively. Body weights of the animals in Groups 9-13 were obtained on Days 1, 4 and 5 respectively.
as §1
Dosing volume (1 or 0.6 mL/kg) was calculated based on the body weight of the individual animal obtained on Day 1 (all groups), Days 2-3 (Groups 5-8), and Days 4-5 (Groups 9-13).
Ethanol (200PRF or 100% pure, non-denatured and no additives) was obtained from Fisher Scientific. The ethanol dosing solution was prepared fresh for each use. One (1) mL of ethanol was added to four (4) mL of saline (0.9% NaCl) in a glass vial and mixed by vortexing to create a uniform solution prior to administration. Animals were administered 20% ethanol at 1 g/kg (IP) 8 hours following the last dose of test article. Thirty (30) minutes following ethanol challenge, animals were euthanized with CO2. About 7 mL of whole blood was rapidly collected via vena cava for generation of serum samples for assays (Acetaldehyde assay by GPL and ALDH2 activity and protein assay by Eurofins). Blood samples were placed into serum separator tubes and maintained at room temperature for at least 30 minutes to allow clot formation prior to processing.
The left lateral lobe of liver was harvested and rinsed in cold saline to render a sample that was snap frozen in liquid nitrogen. Samples were stored at −80° C. until shipment. […]
The obtained serum samples as described herein were measured in singlicate for Acetaldehyde concentration using the Acetaldehyde Colorimetric Assay Kit (BioAssay Systems, #EACT-100), in accordance with manufacturer's instructions. […]

liver ALDH2 [3] = target: T1, liver ALDH2; experiment: In vivo ALDH2 enzymatic activity assay with disulfiram comparison, ethanol challenge (Example 3); parameters: species or system rats (Sprague Dawley); details: for statistical significance of ALDH2 inhibitions: 2 mg/kg, 6.5 mg/kg and 12 mg/kg IV QD; for dose-activity response of ALDH2 inhibition: 2, 6.5, 12 mg/kg IV QD 3 days; for onset of inhibition of ALDH2 activity: after only 3-day administration; for ALDH2 inhibition versus Disulfiram at 3.57 mg/kg/day PO: after three days at 2 mg/kg/day IV
Procedure: as §2, with “Eighty-eight (88)” for “Sixty (60)”, “male” for “male and sixty (60) female”
30 mL disulfiram formulation were prepared. 64.2 mg of disulfiram was completely dissolved in 6 mL of DMSO to render a mixture. 0.3 mL of Tween 80 was then slowly added to the mixture. To the resulting mixture, 23.7 mL of PBS (1×, pH 5.0) was slowly added while stirring to render a dosing formulation. The dosing formulation was a fine suspension at concentration of 2.14 mg/mL. The final concentrations for DMSO and […] were 20% v/v and 1% v/v, respectively.
The dosing formulations of Example 1-4A, Example 1-4B3, and Example 1-2 and difulfiram were prepared with PBS (pH 7.0) by thoroughly mixing via vortexing and sonication.
Ethanol challenge study design and dosing groups of Example 1-4A, Example 1-48, and Example 1-2 and difulfiram are as shown in Table 3.
Animals in Group 1 was administered vehicle (PBS) via tail vein injection, once daily for 3 days. Animals in Group 2 was administered vehicle (PBS) disulfiram at 3.57 mg/kg via oral gavage (PO) once daily for 3 days. Animals in Groups 3-11 were respectively administered Example 1-4A at 2, 6.5, and 12 mg/kg, Example 1-4B at 2, 6.5, and 12 mg/kg, or Example 1-2 at 2, 6.5, and 12 mg/kg via tail vein injection, once daily for 3 days.
Dosing volume (1 or 1.67 mL/kg) was calculated based on the individual body weight obtained prior to the first dose of test article.
Ethanol (200PRF or 100% pure, non-denatured and no additives) was obtained from Fisher Scientific. Ethanol dosing solution (20% v/v in saline) was prepared by mixing one (1) part of ethanol and four (4) part of saline (0.9% NaCl) thoroughly to create a uniform solution prior to administration. Animals was administered 20% ethanol at 1 g/kg (IP) 8 hours following the third dose of test article. Thirty (30) minutes following ethanol challenge, animals were euthanized with CO2. About 2 mL of whole blood was rapidly collected via vena cava for generation of plasma samples. Blood samples were placed into K2 EDTA tubes and kept on wet ice prior to processing. Liver lysate generation, protein concentration determination, and ALDH2 activity assay were performed by Confluence Discovery Technologies (CDT). Protein concentrations were determined using the Pierce BCA Protein Assay Kit. ALDH2 Activity Assay using the Abcam assay kit #ab115348.

liver ALDH2 [4] = target: T1, liver ALDH2; experiment: as above; parameters: species or system rats (Sprague Dawley); details: 2 mg/kg, 6.5 mg/kg and 12 mg/kg IV QD; printed 'after 5 days'
[5] = Solubility in CHCl3, DCM and DMSO by SFC/UV; type: physicochemical; details: organic solvent or mixture, thermodynamic from solid, room temperature
Procedure: The solubility in chloroform (CHCl3), dichloromethane (DCM) and dimethyl sulfoxide (DMSO) was determined at room temperature up to 50 mg/mL by measuring the concentrations of the solutions using SFC/UV. […] 200 mg Example 1-11B was weighed individually into three separate vials. 4 mL DMSO, 6 mL CHCl3 and 6 mL DCM were pipetted into the three vials containing Example 1-11B. The solutions were mixed and sonicated for 10 minutes. The DMSO solution was clear, and an aliquot was taken and diluted 100 times using MeOH before being subjected to SFC analysis. The saturated CHCl3 and DCM solutions were centrifuged, and the clear solution was diluted 100 times using MeOH before being subjected to SFC analysis:
Solubility measurement of up to 50 mg/mL in DMSO, CHCl3 and DCM was requested. […] At 50 mg/mL, Example 1-11B was not completely dissolved in CHCl3 or DCM solutions. After mixing and sonication, a clear aliquot of each solution was taken, and the concentrations of Example 1-11B in CHCl3 and DCM were measured by SFC/UV using the DMSO solution as a reference.

SMILES: C[S+]([O-])C(=O)N1CCC(O)CC1 (racemic) [Example 1-11, (4-hydroxypiperidin-1-yl)(methylsulfinyl)methanone]
ALDH2 inhibition versus pure enantiomer Example 1-11A (FIG. 12) (liver ALDH2 [1]; 10 day administration at 2, 4 and 8 mg/kg, material with 66 wt % of Example 1-11B): greater ALDH2 inhibition than the pure enantiomer Example 1-11A

SMILES: CCN(CC)C(=O)[S@+](C)[O-] (single isomer, unassigned; peak-1) [Example 1-2A, (S )-N, N-diethyl-1 - (methylsulfinyl)methanamide (Peak-1)]
ALDH2 inhibition, enantiomer versus other enantiomer (FIG. 12) (liver ALDH2 [1]; 10-day administration at 0.5, 1 and 2 mg/kg): greater ALDH2 inhibition compared the other enantiomer Example 1-2B

SMILES: CCN(CC)C(=O)[S+]([O-])CC1CC1 (single isomer, unassigned; peak-2) [Example 1-4B, 1-((cyclopropylmethyl)sulfinyl)-N,N-diethylmethanamide (Peak-2)]
statistical significance of ALDH2 inhibitions (liver ALDH2 [3]): statistically significant
dose-activity response of ALDH2 inhibition (liver ALDH2 [3]): A dose-activity response was observed
onset of inhibition of ALDH2 activity (liver ALDH2 [3]): fast activity onset
ALDH2 inhibition versus Disulfiram at 3.57 mg/kg/day PO (liver ALDH2 [3]): greater inhibition
ALDH2 inhibition (FIG. 7) (liver ALDH2 [4]): showed ALDH2 inhibitions

SMILES: C[S@+]([O-])C(=O)N1CCC(O)CC1 [Example 1-11B, (S)-(4-hydroxypiperidin-1-yl)(methylsulfinyl)methanone]
solubility at 10 min ([5]; chloroform (CHCl3), SFC/UV, read-out: solubility in CHCl3): 12.4 mg/mL (≈ 64.8 mM)
solubility at 10 min ([5]; dichloromethane (DCM), SFC/UV, read-out: solubility in DCM): 12.3 mg/mL (≈ 64.3 mM)
solubility at 10 min ([5]; dimethyl sulfoxide (DMSO), tested up to 50 mg/mL, read-out: solubility in DMSO): > 50 mg/mL

Now from value to compound, other results behind:

statistical significance of ALDH2 inhibitions (liver ALDH2 [3]): statistically significant
dose-activity response of ALDH2 inhibition (liver ALDH2 [3]): A dose-activity response was observed
onset of inhibition of ALDH2 activity (liver ALDH2 [3]): fast activity onset
ALDH2 inhibition versus Disulfiram at 3.57 mg/kg/day PO (liver ALDH2 [3]): greater inhibition
ALDH2 inhibition (FIG. 7) (liver ALDH2 [4]): showed ALDH2 inhibitions
SMILES: CCN(CC)C(=O)[S+](C)[O-] (racemic) [Example 1-2, N,N-diethyl-1-(methylsulfinyl)methanamide]
ALDH2 inhibition after one (1) day administration (liver ALDH2 [2]; 6.5 mg/kg and 12 mg/kg IV, 1 day): statistically significant ALDH2 inhibitions were observed
dose response and treatment-duration response in inhibiting ALDH2 activities (liver ALDH2 [2]; 2, 6.5 or 12 mg/kg tail vein injection QD for 1, 3 or 5 days, ethanol 1 g/kg IP 8 h after last dose): A dose response and a treatment-duration response were observed
ALDH2 inhibition, treatment for 3 and 5 days (liver ALDH2 [2]; all doses (2, 6.5, 12 mg/kg) IV QD for 3 and 5 days): statistically significant ALDH2 inhibitions at all doses
inhibition of liver ALDH2 activity (FIGS. 2 and 3) (liver ALDH2 [2]; dosages of 2 mg/kg, 6.5 mg/kg and 12 mg/kg IV QD): statistically significant effectiveness in inhibiting liver ALDH2 activity

ALDH2 inhibition activity in comparison with the negative control group (liver ALDH2 [2]; 20 mg/kg (Day 1), 12 mg/kg (Days 2-5) tail vein injection QD 5 days, ethanol challenge): did not show any inhibition activity
melting point: 71.2 to 74.5 °C
SMILES: CCN(CC)C(=O)[S+]([O-])CC[S+]([O-])C(=O)N(CC)CC (stereo not drawn) [Example 1-15, 1-1′-(ethane-1,2-diyldisulfinyl)bis(N,N-diethylmethanamide)]
